The structures appear in SMILES notation.

`CC(C)(C)c1ccc(OCC2=NC3(O)c4ccc(Cl)cc4CC3S2)cc1` (stereo not drawn): the melting point – broadly, the temperature, or range, at which the solid turns liquid – was in the range of 122 to 124 °C.
Consider `COc1c(CCc2ccc(F)cc2)cc(Cl)cc1C(N)=O`, for which the melting point came to 85 °C.
With `COc1cccc(N2CCN(S(=O)(=O)c3ccc(/C=C/C(=O)NO)cc3)CC2)c1` the figure was 199 to 200 °C; with `O=C(O)CON=CCBr`, 56 to 58 °C.
In turn, `CCCCC(=O)N(c1ccn(C)n1)C1CCCCC1` showed a melting point of 97.5 to 98 °C.
Under `COc1ccc2c(c1)CC(=O)N2Nc1ccncc1` stands 169 to 171 °C.
Under `CCOc1cccc(N(C(=O)CCC(=O)O)c2cc(C(C)(C)C)c(O)c(C(C)(C)C)c2)c1` stands 128 to 130 °C.
With `Cc1ccc2oc(CC(=O)O)c(C)c2c1` the figure was 116 to 117 °C; with `COc1ccc(OCc2ccc(C(=O)c3ccccc3)cc2)cc1OC`, 74 to 75 °C.
As to `O=C(O)C(=O)c1ccc(OC/C=C/c2ccccc2)cc1`, the melting point fell in the range of 103 to 105 °C.
Under `CC(CCn1cnc2ccccc21)NCC(O)COc1ccc(CC(N)=O)cc1` (stereo not drawn) stands 139 to 142 °C.
With `Cc1cc(C(N)=O)ncc1C(c1c(F)ccc(F)c1F)S(=O)(=O)c1ccc2ccoc2c1` (stereo not drawn) the figure was 237 to 240 °C; with `CCC(=O)Oc1ccc2c(c1)CCC1C2CCC2(C)C(=O)CCC12` (stereo not drawn), 134 to 136 °C; with `C#CCCCCCCCCCCCCCO`, 42 to 44 °C.
`Nc1ccccc1C(O)C1CC1` (stereo not drawn) showed a melting point of 76 to 79 °C.
With `Cn1cncc1C(O)(c1ccc(Cl)cc1)c1ccc2c(c1)C(c1cccc(Cl)c1)n1nnnc1N2` (stereo not drawn) the figure was greater than 260 °C.
With `I[Si](c1ccccc1)(c1ccccc1)c1ccccc1` the figure was 221 to 225 °C.
`CCOC(=O)Cn1ccn2nc(-c3ccccc3)cc12` gave a melting point of 85 to 87 °C.
With `COC(=O)c1cn(-c2ccnc3ccccc23)c2cc(F)ccc12` the figure was 186 °C; with `Cc1ccc(S(=O)(=O)NC2N=C(c3ccccc3F)c3ccccc3NC2=O)cc1` (racemic), 215 to 216 °C; with `COc1ccc(-c2ccc(NC(=O)CCc3ccc(CN4CCCC4)cc3)cc2)cc1`, 185 to 188 °C.
With `NC(=O)CCN1C(=O)C(=O)c2cc(F)ccc21`, the melting point is 142 to 145 °C.
With `CC1(Cn2nc(-c3ccc(Br)cc3)oc2=O)Cn2cc([N+](=O)[O-])nc2O1` (stereo not drawn) the figure was 231 to 233 °C; with `O=C1COC(=O)N1C(c1ccccc1)(c1ccccc1)c1ccccc1`, 216 to 218 °C.
Under `Cc1ccc(CN2CC=C(/C=C/c3ccc(Cl)cc3)CC2)cc1` stands 113 to 115 °C.
Under `CN1C(=O)CCC2(C)c3ccc(Sc4cccc5cccnc45)cc3CCC12` (stereo not drawn) stands 241 to 242 °C; under `O=C1/C(=C/c2c[nH]c3ncc(Cl)cc23)N=C(Oc2ccccc2)N1c1ccccc1`, 287 °C.
In turn, `O=C(CO)NC1CCC(CC2CCC(NC(=O)CO)CC2)CC1` (stereo not drawn) gave a melting point of 149 to 151 °C.
Under `C[C@H](c1ccccc1CCn1cncn1)N(c1cc(F)ccc1F)S(=O)(=O)c1ccc(Cl)cc1` stands 116 to 118 °C.
With `Cc1c(CC(=O)NCCCO)cc(-c2ccc(S(C)(=O)=O)cc2)n1-c1ccc(F)cc1` the figure was 105 °C; with `CNc1ncc2c(n1)-c1ccc(Cl)cc1C(c1ccccc1F)=NC2`, 172 to 179 °C.
With `Cc1nn(C)c(O)c1C(=O)c1ccc(Cl)cc1Cl` the figure was 165 to 166 °C; with `C=CS(=O)(=O)NCCCc1ccc(-c2ccc(=O)[nH]n2)cc1`, 166 to 168 °C; with `COc1cc(C(=O)OCc2cc(COC(=O)c3ccc(O)c(OC)c3)cc(COC(=O)c3ccc(O)c(OC)c3)c2)ccc1O`, 161 °C.
The compound `CC(C)(C)NC(=O)[C@@H]1[C@H](O)CCN1C(=O)[C@@H](O)[C@H](Cc1ccccc1)NC(=O)[C@H](CC(N)=O)NC(=O)OCc1ccccc1` gave a melting point of 109 to 112 °C.
Under `CCCN1CC(c2ccc(S(C)(=O)=O)cc2)=C(Oc2ccccc2)C1=O` stands 163 to 165 °C; under `CCN(CC)CC1CCCCN1CC(=O)N1c2ccccc2NC(=O)c2ccccc21` (stereo not drawn), 171 to 172 °C; under `NNC(=O)C(Cl)(Cl)c1cccc(Cl)n1`, 198 to 200 °C.
With `Cc1c(NC(=O)c2ccc(OCCC(C)C)cc2F)ccc2cc(CN3CCCC3)cnc12` the figure was 131 °C; with `CCc1c2c(c(CC)c3ccc(OC)cc13)-c1ccc(OC)cc1C2`, 155 to 157 °C; with `O=C(O)c1cc(O)c(C(=O)c2ccc(Cl)cc2)c([N+](=O)[O-])c1`, 266 to 268 °C.
With `O=C(O)CCC(=NO)c1ccc(-c2ccc(Cl)s2)cc1` the figure was 172 to 174 °C; with `CCCCCCCCCCS(=O)(=O)c1ccc(O)c(C(=O)Nc2cccc(C(F)(F)F)c2)c1`, 108 to 109 °C.
Compound `Cc1nc2ccc(Cn3ccnc3)cc2nc1Cl` displayed a melting point of 116 °C.
Under `Nc1c(C2CNCCO2)oc2ccccc2c1=O` (stereo not drawn) stands 140 to 141 °C; under `N=C(Nc1ccc(Cl)cc1)Nc1ncccc1OCc1c(Cl)cccc1Cl`, 192 to 195 °C.
Under `Cn1cc(C2=C(c3cn(CCCNC(N)=NC#N)c4ccccc34)C(=O)NC2=O)c2ccccc21` stands 168 to 170 °C; under `COc1cc(/C=C/C(=O)CC(=O)c2ccc(I)cc2)ccc1O`, 139 to 141 °C.
On to `CC(C)(C)OC(=O)NCCNC(=O)c1ncccc1Oc1cccc(Cl)c1`, for which the melting point is 86 to 87 °C.
Regarding `CCCCOc1csc(C)c1C(=O)O`, the melting point was in the range of 66 to 68 °C.
With `CC1(C)CCC(C)(C)c2cc(C(N)C(=O)Nc3ccc(C(=O)OCc4ccccc4)cc3)ccc21` (stereo not drawn) the figure was 196 to 197 °C; with `Cc1ccc(OS(=O)(=O)c2ccc(N3CCN(C)C3=O)cc2)c(C)c1`, 159 to 161 °C.
Under `Cc1cc(Cl)cc(C)c1NC(=O)N(CCC(C)(C)C)Cc1ccc(CC(C)(C)C)cc1` stands 148 to 150 °C; under `O=Cc1ccc2sc(=O)[nH]c2c1`, 140 to 142 °C; under `COc1ccc(C2OCc3ccccc3O2)cc1O` (stereo not drawn), 105 to 106 °C.
Under `CCC(CC)c1ccc(Cl)c2nc3n(c12)CCCCN3c1ccc(C(=O)N(C)C)cc1C` stands 113 to 114 °C; under `O=[N+]([O-])c1ccc(-c2cc(O)ccc2-c2ncnc(-c3ccccc3)n2)cc1`, 238 to 240 °C.
`CC(C)(C)OC(=O)N[C@@H]1C(=O)N2C(C(=O)OC(C)(C)C)=C(C=O)CC[C@H]12` returned a melting point of 194 to 195 °C.
With `COc1cccc(N(CCN2CCC(C(=O)c3ccc(F)cc3)CC2)C(=O)c2ccc(NC(N)=O)cc2)c1` the figure was 123 to 128 °C.
Under `CCC(=O)NCC1CC1c1cccc2nc(C(F)(F)F)cn12` (stereo not drawn) stands 148 to 151 °C.
Compound `COc1cc(C=Cc2cc(OC)c(OC)c(OC)c2)cc(Br)c1OC` had a melting point of 180 to 182 °C.
With `O=C(NC1CCCCC1)c1ccc(F)c2c1CC(N(CCCc1c[nH]c3ccc(F)cc13)C1CCC1)CO2` (stereo not drawn), the melting point came to 134 °C.
In turn, `CC(=O)Nc1c(C(=O)c2ccccc2)[nH]c2cc(C#N)ccc12` gave a melting point of 244 to 246 °C.
In the case of `COc1cc2c(cc1OC)C(CBr)OCCC2` (stereo not drawn), the melting point lay within 44 to 45 °C.
With `CC(=O)NC1CCC(N2CCNC2=O)CC1` (stereo not drawn) the figure was 211 to 230 °C; with `CCCCCn1c2ccccc2c2cc(C(=O)N3CCCCC3)ncc21`, 126 to 127 °C; with `CCOC(=O)c1ccc(NC=O)c(C(=O)CCNC(=O)OC(C)(C)C)c1`, 135 to 137 °C.
Under `OC1(c2ccc3c(c2)OCO3)CCN(CCc2ccccc2)CC1` stands 123 to 125 °C; under `CCOC(=O)CNC(=O)CCN(C(=O)c1ccc(Cl)cc1)c1ccc(OC)cc1`, 87 to 89 °C; under `COc1ccc(NC(=O)CCCCC(=O)N(C)OC)cc1`, 89 to 90 °C.
With `O=C1COc2ccccc2CN1Cc1ccccc1` the figure was 95 to 97 °C; with `CC(C)(C)OC(=O)N1CCN(c2cc(Cl)ccc2NC(=O)c2ccnc(Cl)c2)CC1`, 185 to 189 °C.
Take `CCc1cccc(C)c1N(CN1CCOC1=O)C(=O)CCl`: the melting point lay within 101 to 102 °C.
With `Fc1ccc(-c2nc[nH]c2-c2cccs2)cc1` the figure was 197 to 198 °C.
The compound `Cc1nc(-c2ccc(C(F)(F)F)cc2)oc1COc1ccc(CCC(=O)O)cc1` showed a melting point of 98 to 100 °C.
Under `Cc1cc(=O)n(-c2cc3c(cc2F)sc(=O)n3CC(N)=O)c(=O)n1C` stands greater than 260 °C; under `CN(C)c1nccc(-c2cccnc2)n1`, 230 to 241 °C; under `COc1ccc(-c2nc(-c3ccccc3)ccc2C(=O)O)cc1OC`, 178 °C.
With `CCCCOc1ncc(C(C)=O)cc1-c1nn2c(CC)nc(C)c2c(=O)[nH]1` the figure was 190 to 196 °C; with `CS(=O)(=O)c1ccc(-c2nc(-c3cc4ccccc4o3)[nH]c2-c2ccc(F)cc2)cc1`, 235 to 237 °C; with `CSc1nc(N)nc(SC)c1-c1ccc(Cl)cc1Cl`, 164 to 165 °C.
With `CCOC(=O)CCc1ccc(C)nc1` the figure was 36 to 37 °C; with `COC(=O)Cc1ccc(OCCNC(=O)C2Cc3ccccc3N2S(=O)(=O)c2ccc(-c3cccc(C(F)(F)F)c3)c(C)c2)cc1` (stereo not drawn), 60 °C.
For `COc1ccc(CNC(=O)c2cn3c(=O)n(Cc4ccccc4)c(=O)c(C)c3s2)cc1`, the melting point lay in the range of 160 to 162 °C.
Under `CC1Cc2cc(Cl)ccc2C(c2ccc([N+](=O)[O-])cc2)=NN1` (stereo not drawn) stands 152 to 154 °C; under `O=C(NC(Cl)C(Cl)(Cl)Cl)c1ccccc1O` (stereo not drawn), 113 to 114 °C; under `Cc1nn(-c2ccc(F)cc2)cc1C(=O)N(CC(=O)O)c1ccc(OCC(C)(C)C)c(C#N)c1`, 157 °C.
With `CCCCCCCCCCCCCCCC(=O)NCCCCCCCCCCCC(=O)O` the figure was 119 to 121 °C.
